Here are results for 27 molecules from patent US20180338899A1, “INHIBITORS FOR METHYLATION-RELATED ENZYMES HAT1 AND KAT8” (priority 2015, published 2018).

Counter-ions that a name gives are not always drawn. Like-named read-outs stand apart in the source and are kept apart here.

The conditions of data set [1]: cited from earlier work.
The next data set addresses T1, KAT8 (Homo sapiens, UniProt Q9H7Z6).
T1 sequence (Q9H7Z6 1-458): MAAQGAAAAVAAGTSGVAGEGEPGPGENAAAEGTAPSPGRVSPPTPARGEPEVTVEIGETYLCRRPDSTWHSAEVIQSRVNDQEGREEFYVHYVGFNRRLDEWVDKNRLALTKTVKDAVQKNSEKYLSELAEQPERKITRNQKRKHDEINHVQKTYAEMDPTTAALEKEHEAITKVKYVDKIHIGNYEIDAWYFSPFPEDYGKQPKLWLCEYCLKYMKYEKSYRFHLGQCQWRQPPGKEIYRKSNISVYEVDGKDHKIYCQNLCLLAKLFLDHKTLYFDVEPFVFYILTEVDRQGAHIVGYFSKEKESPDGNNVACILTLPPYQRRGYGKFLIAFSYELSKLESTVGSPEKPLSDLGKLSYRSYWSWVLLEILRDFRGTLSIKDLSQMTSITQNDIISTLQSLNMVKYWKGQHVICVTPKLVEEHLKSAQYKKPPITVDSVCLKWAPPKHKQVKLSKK
Put plainly: FDA library screening (analysis service PLEXERA) and binding strength, KAT8. From the text: (§1) Medicines containing each as an active ingredient (provided that each medicine has an indication other than that for malignant tumors) have already been commercially available.
(§2) Meanwhile, medicines containing each as an active ingredient (provided that each medicine has an indication other than that for malignant tumors) have already been commercially available.

Another data set concerns the target T2, HAT1 (Homo sapiens, UniProt O14929).
T2 sequence (O14929 1-419): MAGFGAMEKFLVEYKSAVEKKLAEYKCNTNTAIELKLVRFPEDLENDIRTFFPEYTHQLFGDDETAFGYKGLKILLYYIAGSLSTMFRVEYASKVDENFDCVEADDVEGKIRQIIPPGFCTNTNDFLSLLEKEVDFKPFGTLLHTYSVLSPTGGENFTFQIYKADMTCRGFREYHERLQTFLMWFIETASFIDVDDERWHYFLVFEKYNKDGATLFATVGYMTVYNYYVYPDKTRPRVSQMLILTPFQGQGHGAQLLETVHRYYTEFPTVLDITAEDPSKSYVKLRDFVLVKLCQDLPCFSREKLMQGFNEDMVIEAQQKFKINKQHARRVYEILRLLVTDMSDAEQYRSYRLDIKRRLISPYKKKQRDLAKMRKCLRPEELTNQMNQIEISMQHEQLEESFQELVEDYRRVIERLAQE
In words: FDA library screening (analysis service PLEXERA) and binding strength, HAT1.
Text: as §1, §2

Where [2] appears, read: interview form of commercially available medicine.
Setting [3] is: interview form, given as percent (external preparation / solution concentration).

For the molecule `CCC(=O)O[C@@H](O[P@](=O)(CCCCc1ccccc1)CC(=O)N1C[C@H](C2CCCCC2)C[C@H]1C(=O)O)C(C)C` [fosinopril], the “maximum effective blood concentration (Cmax)” value in data set [1] (setting [2]) is 4 µg/mL.
In the case of `O=C([O-])c1ccccc1-c1c2cc(Br)c(=O)cc-2oc2[c]([Hg+])c([O-])c(Br)cc12.[Na+].[Na+].[OH-]` [merbromin], the “inhibition of function of KAT8” value on KAT8 is listed as “inhibited only KAT8”. Besides, in data set [1] (setting [3]), the “maximum effective blood concentration (Cmax)” value is recorded as 2%.
Consider `C=CCc1ccccc1OCC(O)CNC(C)C` (stereo not drawn) [alprenolol hydrochloride], for which the “inhibition of function of KAT8” value on KAT8 was “inhibited function of both HAT1 and KAT8”. In data set [1] (setting [2]), the “maximum effective blood concentration (Cmax)” value was 0.12 µg/mL. The “inhibition of function of HAT1” value on HAT1 was “inhibited function of both HAT1 and KAT8”.
In the case of `CN[C@H](CC(C)C)C(=O)N[C@H]1C(=O)N[C@@H](CC(N)=O)C(=O)N[C@H]2C(=O)N[C@H]3C(=O)N[C@H](C(=O)N[C@H](C(=O)O)c4cc(O)cc(O)c4-c4cc3ccc4O)[C@H](O)c3ccc(c(Cl)c3)Oc3cc2cc(c3O[C@@H]2O[C@H](CO)[C@@H](O)[C@H](O)[C@H]2O[C@H]2C[C@](C)(N)[C@H](O)[C@H](C)O2)Oc2ccc(cc2Cl)[C@H]1O` [vancomycin hydrochloride], the “inhibition of function of KAT8” value at KAT8 is “inhibited function of both HAT1 and KAT8”. The “maximum effective blood concentration (Cmax)” value in data set [1] (setting [2]) is 30 µg/mL. Further, on HAT1, the “inhibition of function of HAT1” value was “inhibited function of both HAT1 and KAT8”.
For the molecule `Cc1cc(=O)n(-c2ccccc2)n1C` [antipyrine], the “maximum effective blood concentration (Cmax)” value in data set [1] (setting [2]) was 50 µg/mL. On HAT1, the “inhibition of function of HAT1” value was “inhibited only HAT1”.
Regarding `CN(CCCCCCCCCCN(C)C(=O)Oc1cccc([N+](C)(C)C)c1)C(=O)Oc1cccc([N+](C)(C)C)c1` [demecarium bromide], the “inhibition of function of KAT8” value on KAT8 is “inhibited function of both HAT1 and KAT8”. For the same molecule, the “inhibition of function of HAT1” value on HAT1 was “inhibited function of both HAT1 and KAT8”.
Regarding `CCN1CCN(C(=O)N[C@@H](C(=O)N[C@@H]2C(=O)N3C(C(=O)O)=C(CSc4nnnn4C)CS[C@H]23)c2ccc(O)cc2)C(=O)C1=O` [cefoperazone dihydrate], in data set [1] (setting [2]), the “maximum effective blood concentration (Cmax)” value is on record as 1,000 ng/ml.
As to `CC(N/C(=N\C#N)Nc1ccncc1)C(C)(C)C` (stereo not drawn) [pinacidil], the “maximum effective blood concentration (Cmax)” value in data set [1] (setting [2]) is 2.5 µg/mL. On HAT1, the “inhibition of function of HAT1” value was “inhibited only HAT1”.
With `C=C1[C@@H]2CC[C@H]3[C@]4(C)C[C@H](O[C@@H]5O[C@H](CO)[C@@H](OS(=O)(=O)O)[C@H](OS(=O)(=O)O)[C@H]5OC(=O)CC(C)C)C[C@@H](C(=O)O)[C@H]4CC[C@]3(C2)[C@@H]1O` [atractyloside potassium salt], the “maximum effective blood concentration (Cmax)” value in data set [1] (setting [2]) is 60 µg/mL. Besides, the “inhibition of function of HAT1” value on HAT1 is recorded as “inhibited only HAT1”.
As to `CCCCNc1cc(C(=O)O)cc(S(N)(=O)=O)c1Oc1ccccc1` [bumetanide], the “inhibition of function of KAT8” value on KAT8 is “inhibited only KAT8”. Further, in data set [1] (setting [2]), the “maximum effective blood concentration (Cmax)” value is 0.882 µg/mL.
Take `COC(=O)CCc1ccc(OCC(O)CNC(C)C)cc1` (stereo not drawn) [esmolol hydrochloride]: the “maximum effective blood concentration (Cmax)” value in data set [1] (setting [2]) is 2.7 µg/mL. The “inhibition of function of HAT1” value on HAT1 was “inhibited only HAT1”.
On to `CCc1oc2ccccc2c1C(=O)c1cc(Br)c(O)c(Br)c1` [benzbromarone], for which the “maximum effective blood concentration (Cmax)” value in data set [1] (setting [2]) is 3.1 µg/mL. The “inhibition of function of HAT1” value at HAT1 is given as “inhibited only HAT1”.
As for `C[N+]1(C)CCC(OC(=O)C(O)(c2ccccc2)C2CCCC2)C1` (stereo not drawn) [glycopyrrolate], the “inhibition of function of KAT8” value on KAT8 is “inhibited only KAT8”.
On to `C=CC1=C(C(=O)O)N2C(=O)[C@@H](NC(=O)/C(=N\OCC(=O)O)c3csc(N)n3)[C@H]2SC1` [cefixime], for which the “maximum effective blood concentration (Cmax)” value in data set [1] (setting [2]) was 3.97 µg/mL.
Consider `CC(C(=O)O)c1ccc(C(=O)c2cccs2)cc1` (stereo not drawn) [suprofen], for which, in data set [1] (setting [3]), the “maximum effective blood concentration (Cmax)” value was 1%. Further, on HAT1, the “inhibition of function of HAT1” value is “inhibited only HAT1”.
Consider `CCN(CC)C(=O)Nc1ccc(OCC(O)CNC(C)(C)C)c(C(C)=O)c1` (stereo not drawn) [celiprolol hydrochloride], for which, at KAT8, the “inhibition of function of KAT8” value is “inhibited function of both HAT1 and KAT8”. For the same molecule, the “maximum effective blood concentration (Cmax)” value in data set [1] (setting [2]) is 0.3 µg/mL. The “inhibition of function of HAT1” value at HAT1 is “inhibited function of both HAT1 and KAT8”.
For the molecule `CO[C@]12C[C@@H](COC(=O)c3cncc(Br)c3)CN(C)[C@@H]1Cc1cn(C)c3cccc2c13` [nicergoline], the “maximum effective blood concentration (Cmax)” value in data set [1] (setting [2]) is listed as 96 ng eq./mL. Also, the “inhibition of function of HAT1” value at HAT1 is given as “inhibited only HAT1”.
Regarding `CN(C(=O)CN(CCO)CC(=O)N(C)C(C)(C)Cc1ccccc1)C(C)(C)Cc1ccccc1` [oxethazaine], the “maximum effective blood concentration (Cmax)” value in data set [1] (setting [2]) is 1 µg/mL. Moreover, the “inhibition of function of HAT1” value at HAT1 was “inhibited only HAT1”.
For `CCc1cccc(CC)c1NC(=O)CN(CC(=O)O)CC(=O)O` [etifenin], the “maximum effective blood concentration (Cmax)” value in data set [1] (setting [2]) was 5.0 µg/mL. The “inhibition of function of HAT1” value at HAT1 is on record as “inhibited only HAT1”.
On to `C[C@@H](O)[C@H]1C(=O)N2C(C(=O)O)=C(SCCN=CN)C[C@H]12` [imipenem], for which the “maximum effective blood concentration (Cmax)” value in data set [1] (setting [2]) was 82.8 µg/mL.
In the case of `NCC[C@H](O)C(=O)N[C@@H]1C[C@H](N)[C@@H](O[C@H]2O[C@H](CN)[C@@H](O)[C@H](O)[C@H]2O)[C@H](O)[C@H]1O[C@H]1O[C@H](CO)[C@@H](O)[C@H](N)[C@H]1O` [amikacin hydrate], the “inhibition of function of KAT8” value on KAT8 was “inhibited function of both HAT1 and KAT8”. Further, the “maximum effective blood concentration (Cmax)” value in data set [1] (setting [2]) was 25 µg/mL. For the same molecule, at HAT1, the “inhibition of function of HAT1” value was “inhibited function of both HAT1 and KAT8”.
As to clofilium tosylate, the “maximum effective blood concentration (Cmax)” value in data set [1] (setting [2]) is 0.11 µg/mL. The “inhibition of function of HAT1” value at HAT1 is recorded as “inhibited only HAT1”.
With `CCCN1C[C@H](CSC)C[C@@H]2c3cccc4[nH]cc(c34)C[C@H]21` [pergolide mesylate], the “inhibition of function of KAT8” value at KAT8 is recorded as “inhibited only KAT8”. In addition, in data set [1] (setting [2]), the “maximum effective blood concentration (Cmax)” value is 0.026 µg/mL.
Regarding `CC(C)NCC(O)COc1ccc(CCOCC2CC2)cc1` (stereo not drawn) [betaxolol hydrochloride], the “inhibition of function of KAT8” value on KAT8 is “inhibited function of both HAT1 and KAT8”. Also, the “maximum effective blood concentration (Cmax)” value in data set [1] (setting [2]) was 0.0418 µg/mL. In addition, the “inhibition of function of HAT1” value at HAT1 was “inhibited function of both HAT1 and KAT8”.
With `C=CCOc1ccccc1OCC(O)CNC(C)C` (stereo not drawn) [oxprenolol hydrochloride], the “inhibition of function of KAT8” value at KAT8 is “inhibited function of both HAT1 and KAT8”. The “maximum effective blood concentration” value in data set [1] (commercially available medicine) is 30.18 µg/µL. Besides, in data set [1] (setting [2]), the “maximum effective blood concentration (Cmax)” value is 0.3 µg/mL. The “inhibition of function of HAT1” value at HAT1 was “inhibited function of both HAT1 and KAT8”.
With `COCCc1ccc(OCC(O)CNC(C)C)cc1.COCCc1ccc(OCC(O)CNC(C)C)cc1.O=C(O)C(O)C(O)C(=O)O` (racemic) [metoprolol-(+,−)(+)-tartrate salt], at KAT8, the “inhibition of function of KAT8” value is on record as “inhibited only KAT8”. In data set [1] (setting [2]), the “maximum effective blood concentration (Cmax)” value was 0.077 µg/mL.
With `CC(C)NCC(O)COc1ccc(COCCOC(C)C)cc1` (stereo not drawn) [bisoprolol fumarate], the “inhibition of function of KAT8” value on KAT8 is “inhibited function of both HAT1 and KAT8”. Also, the “maximum effective blood concentration (Cmax)” value in data set [1] (setting [2]) is 0.1 µg/mL. For the same molecule, the “inhibition of function of HAT1” value on HAT1 was “inhibited function of both HAT1 and KAT8”.
